According to patent US20120058894A1, “SYNERGISTIC COMBINATIONS WHICH ARE COMPATIBLE WITH CULTIVATED PLANTS AND WHICH COMPRISE HERBICIDES SELECTED FROM THE GROUP CONSISTING OF BENZOYLCYCLOHEXANEDIONES FOR USE IN RICE CROPS” (Bayer CropScience AG, priority 2007, published 2012):

Assays:
Type in all cases: in vivo
ORYZA (Oryza sativa) = test: Post-emergence greenhouse test, damage to cultivated plant rice; details: for Damage ORYZA: dosage 300 g a.i./ha
Procedure: (§1) Seeds or root pieces of harmful mono- and dicotyledonous plants are placed in sandy clay soil in pots, covered with earth and secured in a greenhouse under good growing conditions (temperature, air humidity, water supply). Approximately three weeks after sowing, the plants are treated at the 2- to 3-leaf stage with the herbicidal active substances or the combinations according to the invention. The combinations according to the invention formulated as wettable powders or as emulsion concentrates are sprayed, in spray application, on to the green plant parts in different dosages with a water application rate of 600 to 800 I/ha (corrected). Immediately up to a few days after application, the test receptacles accumulate water over the ground surface by up to 30 mm. With the water application (submerged application), on the other hand, the ground in the closed test receptacle is already covered with the paddy water up to 30 mm at the time of the application. The formulated active substances are here added directly to the paddy water. After an exposure time of the test plants in the greenhouse of an additional 3 to 4 weeks under optimum growing conditions, the effect of the preparations is evaluated visually in comparison with untreated controls. […] In this connection, actions of the combinations according to the invention which exceed the formal sum of the actions of the herbicides when applied individually are frequently observed. The values observed for the tests show, with suitable low dosages, an action of the combinations which lie above the expected values according to Colby.
(§2) When the combinations according to the invention are used, herbicidal actions on a harmful plant species which exceed the formal sum of the actions of the herbicides present when applied singly are frequently observed. Alternatively, it can in many cases be observed that a lower application rate for the herbicidal combination is needed in order to achieve, in comparison with the individual preparations, the same action with a harmful plant species. Such improvements in action or improvements in effectiveness or economies in application rate are a strong indication of a synergistic effect. If the observed activity values already exceed the formal sum of the values for the tests with individual applications, then they likewise exceed the expected value according to Colby, which is calculated according to the following formula and is likewise regarded as an indication of synergy (cf. S. R. Colby in Weeds, 15 (1967), pp. 20 to 22):
(§3) In this connection: • A, B=action of the component A or B in percent at a dosage of a or b grams ai/ha, • E=expected value in % at a dosage of a+b grams ai/ha.
(§4) The values observed for the test examples mentioned below are greater than (harmful plants) or lower than (cultivated plants) the expected values according to Colby.

[1] = system: BRAPL (Brachiaria platyphylla); test: Post-emergence weed action, greenhouse pot test
Procedure: as §1, §2, §3, §4

[2] = system: LEFCH (Leptochloa chinensis); test: Post-emergence weed action, greenhouse pot test
Procedure: as §1, §2, §3, §4

[3] = system: SCPSS (Scirpus juncoides); test: Post-emergence weed action, greenhouse pot test
Procedure: as §1, §2, §3, §4

[4] = system: CYPES (Cyperus serotinus); test: Post-emergence weed action, greenhouse pot test; details: Table 4, post-emergence, dosage 100 g a.i./ha
Procedure: as §1, §2, §3, §4

[5] = system: ECHCG (Echinochloa crus galli); test: Post-emergence weed action, greenhouse pot test; details: Table 4, post-emergence, dosage 100 g a.i./ha
Procedure: as §1, §2, §3, §4

[6] = Table 3, post-emergence, dosage 6.25 g a.i./ha
[7] = Table 6, post-emergence, dosage 6.25 g a.i./ha
[8] = Table 2, post-emergence, dosage 12.5 g a.i./ha
[9] = Table 5, post-emergence, dosage 62.5 g a.i./ha
[10] = Table 5, post-emergence, dosage 12.5 g a.i./ha

For `CCCCOC(=O)[C@@H](C)Oc1ccc(Oc2ccc(C#N)cc2F)cc1` [Compound B3, cyhalofop-butyl], the “Action/Damage ORYZA” value (ORYZA (Oryza sativa); [6]) was 0%, the “Action/Damage ORYZA” value (ORYZA (Oryza sativa); [7]) was 0% and the “Action/Damage BRAPL” value [1, 6] was 0%. The “Action/Damage LEFCH” value [2, 7] was 0%.

For `Cc1ccc(S(=O)(=O)Oc2c(C(=O)c3ccc(Cl)cc3Cl)c(C)nn2C)cc1` [Compound B6, pyrazolynate], the “Action against SCPSS” value ([3]; Table 9, post-emergence, dosage 250 g a.i./ha) was 30%.

In the case of `CS(=O)(=O)c1ccc(C(=O)C2C(=O)CCCC2=O)c(Cl)c1COCC(F)(F)F` [Compound A1, tembotrione], the “Action/Damage ORYZA” value (ORYZA (Oryza sativa); in vivo) is reported as 10%, the “Action/Damage BRAPL” value [1, 8] is reported as 20% and the “Action against SCPSS” value ([3]; Table 7, post-emergence, dosage 12.5 g a.i./ha) is reported as 40%. For the same compound, the “Action against SCPSS” value ([3]; Table 8, post-emergence, dosage 12.5 g a.i./ha) was 40%, the “Action against SCPSS” value ([3]; Table 9, post-emergence, dosage 12.5 g a.i./ha) was 40% and the “Action against SCPSS” value ([3]; Table 10, post-emergence, dosage 12.5 g a.i./ha) was 40%.

With `CCOC(=O)C1=NOC(c2ccccc2)(c2ccccc2)C1` [Compound C1, isoxadifen-ethyl] the “Damage ORYZA” value (ORYZA (Oryza sativa); Table 11, post-emergence) was 0%, the “Damage ORYZA” value (ORYZA (Oryza sativa); Table 12, post-emergence) was 0% and the “Wirkung gegen CYPES” value [4] was 0%. For the same compound, the “Wirkung gegen ECHCG” value [5] was 0% and the “Wirkung gegen LEFCH” value ([2]; Table 4, post-emergence, dosage 100 g a.i./ha) was 0%.

With `CC(C)(NC(=O)C(Br)C(C)(C)C)c1ccccc1` (stereo not shown) [Compound B7, bromobutide] the “Action against SCPSS” value ([3]; Table 10, post-emergence, dosage 125 g a.i./ha) was 70%.

With `CS(=O)(=O)c1ccc(C(=O)C2C(=O)CCCC2=O)c(Cl)c1COCC1CCCO1` (stereo not shown) [Compound A2, tefuryltrione] the “Action/Damage ORYZA” value (ORYZA (Oryza sativa); [9]) was 10%, the “Action/Damage BRAPL” value [1, 9] was 25% and the “Action against SCPSS” value ([3]; Table 7, post-emergence, dosage 37.5 g a.i./ha) was 50%.

With `CS(=O)(=O)c1ccc(C(=O)C2C(=O)CCCC2=O)c(Cl)c1` [Compound B1, sulcotrione] the “Action/Damage ORYZA” value (ORYZA (Oryza sativa); [8]) was 5%, the “Action/Damage ORYZA” value (ORYZA (Oryza sativa); [10]) was 5% and the “Action/Damage BRAPL” value [1, 8] was 0%. For the same compound, the “Action/Damage BRAPL” value [1, 10] was 0%.

`CS(=O)(=O)c1ccc(C(=O)C2=C(Sc3ccccc3)C3CCC(C3)C2=O)c(Cl)c1` (stereo not shown) [Compound B5, benzobicyclon] was tested, and the “Action against SCPSS” value ([3]; Table 8, post-emergence, dosage 37.5 g a.i./ha) was 60%.
